Reference: EP0996429B1, “SOLID STATE SOLUTIONS AND DISPERSIONS OF POORLY WATER SOLUBLE DRUGS” (MERCK PATENT GmbH, priority 1997, dated 1999)

What was measured:
[1] = Intrinsic dissolution of phenytoin and HydroSolve-phenytoin in DI water (paddle method, absorbance 220 nm); assay type: physicochemical; conditions: 900 ml D1 water, Paddle Method 50 rpm
Procedure: b. Procedures: • 1. Melt Gelucire and Pluronic together. • 2. Dissolve the phenytoin into above solution. • 3. Congeal this suspension and pass through #20 mesh. • 4. Measure about 32 and 110 mg of phenytoin and HydroSolve - phenytoin, respectively. • 5. Measure the dissolution profiles using 900 ml of D1 water and Paddle Method at 50 rpm. • 6. Using D1 water as blank, measure the absorbance at 220 nm of each sample which is filtered through 0.45 micron filters. • 7. Calculate the percent released by standard curve: Absorbance = 0.4072 x Concentration (mg/100ml) + 0.0227 [formula] c.

[2] = Intrinsic dissolution of ibuprofen and HydroSolve-Ibuprofen in pH 7.2 buffer (paddle, absorbance 221 nm); assay type: physicochemical; conditions: 700 ml pH 7.2 buffer, paddle 50 rpm
Procedure: b. Procedures: • 1.Melt Gelucire and Pluronic, and dissolve ibuprofen into the mixture. • 2.Add the above solution into Sorbitol Instant while stirring. • 3.Cool down and pass through #20 mesh screen. c. Dissolution Test Using the Dissolution Test as follows: • 1.Measure 3.3 mg and 17.2 mg of ibuprofen (20 micron) and HydroSolve - Ibuprofen, respectively. • 2.Measure the dissolution profiles using 700 ml of pH 7.2 buffer and paddle at 50 rpm. • 3.Measure the absorbance at 221 nm.

Row | Structure (SMILES) | % Dissolved (%) ([1]; Time 0.5 h) | % Dissolved (%) ([1]; Time 1 h) | % Dissolved (%) ([1]; Time 2 h) | % Dissolved (%) ([1]; Time 3 h) | Dissolution profile (Results) ([2]; Time 10 min) | Dissolution profile (Results) ([2]; Time 20 min) | Dissolution profile (Results) ([2]; Time 30 min)
1 | O=C1NC(=O)C(c2ccccc2)(c2ccccc2)N1 [Phenytoin] | 3.03% | 5.92% | 14.42% | 20.58% | – | – | –
2 | CC(C)Cc1ccc(C(C)C(=O)O)cc1 (stereo not shown) [Ibuprofen] | – | – | – | – | 75.93 | 81.14 | 81.14
